According to patent publication US7544666B2, “NAP derivatives” (Industrial Technology Research Institute, priority 2005, dated 2009):

Key:
Caco-2 cell monolayer = experiment: Permeation to Caco-2 cell monolayer; assay type: in vitro ADME, human; parameters: unit not given here; settings: 4-hour incubation, initial concentration 500 μM in upper layer
Description: The permeation of NAP and the NAP derivatives was examined using the Caco-2 cell system. Caco-2 cells (1×10^5 cells) were seeded into the polycarbonate film on the upper layer of a 12-well Transwell and incubated at 37° C. for 18 to 26 days. The TEER of the Caco cell monolayer was measured over 350 Ω×cm^2. NAP and the NAP derivatives in the HBSS were added into the upper layer of the Caco-2 cell-seeded Transwell. After 4-hour incubation, the concentration of NAP and the NAP derivatives in the upper and lower layers was measured and analyzed in comparison with the initial concentration (500 μM) by reverse phase HPLC at 210 nm.

[1] = test system: scopolamine-induced amnesia rats; experiment: Morris water maze in scopolamine-induced amnesia rats; assay type: in vivo, rat; settings: 0.25 mg/kg subcutaneous, 5 min after scopolamine 1 mg/kg i.p.; FIG. 11
Description: Scopolamine-induced amnesia […] were used in combination of Morris water maze, a memory and behavior analysis system, to assess the in vivo effects of the NAP derivative BMEC-NAP0701 and NAP.
Sprague-Dawley male rats with body weight of 220-250 g obtained from the National Laboratory Animal Center, Taiwan, were caged in an air-conditioned housing with a temperature of 23±1° C. and kept on an alternating 12-hour light and 12-hour dark schedule with sufficient feed and water. […]
Morris Water Maze was performed with a water maze device containing a stainless pool with a size of 160 cm in diameter, 50 cm in height, and 15 mm in thickness of the wall and a platform with a size of 11 cm in diameter, and 22 cm in height. […] The swimming time and track were recorded by VEDEOMEX-V video tracing system, video recorder, and monitor (Columbus Instruments) and analyzed by Water Maze Program (Columbus Instruments). […]
Late of the third day: Two to four hours after the third day training, the platform was removed from the pool. The trained rats were separately sent to quadrant I and the swimming track was recorded for 60 sec. The time spent in finding the original platform was also recorded. […]
Early of the fifth day: The platform was placed in the quadrant II and submerged beneath water level about 1 cm. The rats were separately sent to quadrant I and the time spent in finding the platform was recorded. […]

Caco-2 cell = experiment: Stability in the Caco-2 cell system; assay type: in vitro ADME, human; settings: 4-hour incubation in Caco-2 Transwell; relative to initial conc. = 100.00 (500 μM)
Description: (§1) The stability of the NAP derivatives prepared by EXAMPLE 1 was measured with the system of human colon cancer cell, Caco-2 cell. Caco-2 cells (1×10^5 cells) were first seeded into a polycarbonate film on the upper layer of a 12-well Transwell and incubated for 18 to 26 days at 37° C. The TEER of the Caco-2 cell monolayer was measured over 350 Ω×cm^2. The stability of the NAP derivatives in the Hanks' balanced salt solutions (HBSS) was measured by the concentration changes of NAP and the NAP derivatives incubated in the HBSS at 37° C. for 4 hours. The stability of the NAP derivatives in the Caco-2 cell system was measured by the procedure described below. NAP and the NAP derivatives in the HBSS were added into the upper layer of the Caco-2 cell-seeded Transwell. After 4-hour incubation, the concentration of NAP and the NAP derivatives in the upper and lower layers was measured and analyzed in comparison with the initial concentration (500 μM) by reverse HPLC at 210 nm.

[2] = Stability in Hanks' balanced salt solution (HBSS); assay type: physicochemical; settings: 37° C., relative to initial conc. in HBSS = 100.00
Description: as §1

[3] = Pharmacokinetics after single subcutaneous dose in rats; assay type: in vivo; settings: rat, 1 mg/kg subcutaneous
Description: A single dosage of NAP and the NAP derivative of BMEC-NAP0706 were subcutaneously administered to rats respectively, and blood samples were obtained at different time intervals. The blood samples were subjected to LC-MS/MS analysis to measure the concentration of NAP and the NAP derivative. A time-plasma concentration relationship was established and pharmacokinetic parameters were calculated. The procedures are described below.
Long Evans rats with body weight between 220 to 240 g were obtained from the National Laboratory Animal Center, Taiwan and caged in the laboratory animal housing in the Industrial Technology Research Institute, Taiwan. The Breeding procedure follows the “Guide for the Care and Use of Laboratory Animals” established by the Chinese Society of Laboratory Animal Sciences. The rats were kept on an alternating 12-hour light and 12-hour dark schedule with sufficient feed and water until they reached the body weight between 280 to 300 g.
Each rat was weighed before the pharmacokinetic examination to estimate its own dosage. The tested drug dissolved in PBS was formulated to achieve the amount of one dosage between 0.28 to 0.32 mL. Each rat was subcutaneously administered with 1 mg/kg of the tested drug. 0.3 mL of blood samples were collected from the saphenous vein in medial thigh of the rat before and 0.25-, 0.5-, 0.75-, 1-, 2-, 4-, 24-hour after administration. Whole blood was centrifuged under 3500 rpm for 10 min and supernatant (serum) was moved to a clean 1.5 mL eppendorf and stored at −80° C.
Sample pretreatment was as follows: The frozen serum was thawed in an ice bath. One hundred μL of the serum was moved to a clean 1.5 mL eppendorf and 10 μL of internal standard material was added. The mixture was added with 200 μL ACN and mixed again. The sample was centrifuged under 14000 rpm at 4° C. for 10 min, and the supernatant was moved to the other clean eppendorf and dried in a vacuum system at 60° C. for 30 min. The dried sample was dissolved in 900 μL ddH2O. The sample was added to a solid phase extraction column previously activated with methanol and ddH2O. After the sample passed through, the extraction column was washed with ddH2O alone and then ddH2O containing 5% ACN and 0.1% TFA. The sample was dissolved from the extraction column with ACN containing 0.1% TFA and dried under a vacuum system at 60° C. for 1 hour. The dried sample was redissolved with 100 μL of ddH2O containing 50% ACN. The sample was analyzed with HPLC-MS/MS system.
The sample analysis was as described below. 20 μL of the sample was poured into the HPLC-MS/MS system. The solvent system was applied in gradient partitioning: 90% A (H2O/ACN=98/2, 0.1% F.A.) and 10% B (H2O/ACN=20/80, 0.1% F.A.) at 0-3 min; 10% A and 90% B at 3-6.5 min; 90% A and 10% B again at 6.5-15 min. The flow rate was 0.2 mL/min. The column was ZORBAX C18, 5 μm, 2.1×50 mm (Agilent) and the detector was ABI 4000 Q Trap. Each sample was analyzed for 15 min. The results were compared with the standard calibration curve to estimate the concentration of each sample. All data was statistically analyzed with Excel or WinNonlin.

With `CC[C@H](C)[C@H](NC(=O)[C@H](CO)NC(=O)[C@@H](NC(=O)[C@@H]1CCCN1C(=O)[C@H](C)NC(=O)[C@H](CC(N)=O)NC(=O)c1ccccc1)C(C)C)C(=O)N1CCC[C@H]1C(=O)N[C@@H](CCC(N)=O)C(=O)O` [BMEC-NAP0701, Benzoyl-NAPVSIPQ-OH] the “Conc. at the lover layer” value (Caco-2 cell monolayer) was 0.28, the “memory improving effect (time spent in finding the platform vs scopolamine-induced rats)” value [1] was “memory improving effect similar to NAP in vivo” and the “Conc. after 4-hour in Caco-2 cells” value (Caco-2 cell) was 78.97. The “Conc. after 4-hour in HBSS” value [2] was 98.62.
With `CC[C@H](C)[C@H](NC(=O)[C@H](CO)NC(=O)[C@@H](NC(=O)[C@@H]1CCCN1C(=O)[C@H](C)NC(=O)[C@H](CC(N)=O)NC(=O)OCC1c2ccccc2-c2ccccc21)C(C)C)C(=O)N1CCC[C@H]1C(=O)N[C@@H](CCC(N)=O)C(=O)O` [BMEC-NAP0706, Fmoc-NAPVSIPQ-OH] the “Conc. at the lover layer” value (Caco-2 cell monolayer) was 0.57, the AUC ([3]; in vivo, sc) was 104 ng·h/mL and the Cmax ([3]; in vivo, sc) was 101 ng/mL. The Tmax ([3]; in vivo, sc) was 45 min, the half-life ([3]; in vivo, sc, read-out: T½ (converted)) was 54.6 min and the “AUC relative to NAP” value [3] was “twice that of NAP”. The TNAP-max [3] was 0.25 h, the “maximum plasma concentration relative to NAP” value [3] was “twice that of NAP” and the “time required to reach the highest concentration” value [3] was 0.25 h. The “Conc. after 4-hour in Caco-2 cells” value (Caco-2 cell) was 67.14 and the “Conc. after 4-hour in HBSS” value [2] was 99.78.
In the case of “H-NAPVSIPN-OH [BMEC-NAP0603, H-NAPVSIPN-OH]”, the “Conc. at the lover layer” value (Caco-2 cell monolayer) is reported as 0.04, the “Conc. after 4-hour in Caco-2 cells” value (Caco-2 cell) is reported as 29.17 and the “Conc. after 4-hour in HBSS” value [2] is reported as 101.90.
